Laboratory results taken from patent publication EP3130339A1, “A COMPOUND FOR USE IN THE TREATMENT OF COMORBID ANXIETY DISORDER AND DEPRESSION DISORDER” (Aché Laboratórios Farmacêuticos S.A., priority 2015, dated 2017).

Legend:
Assay type in all cases: in vivo
mice (RJ:NMRI, males) = assay: Bright/dark box test (clear/dark transition test); settings: 30 minutes before the test; for Time spent in the clear compartment (seconds) (mean ± mean standard error): three-minute test
Description: This model, also known as clear/dark transition test, is characterized as a model of conflict, based on the natural tendency to explore new environments versus avoidance of doing so, due to the potential possibility of the presence of aversive stimuli. It is an animal model based on independent behavior of conditioning, therefore, there is no need of learning. In rodents, this model is grounded in their natural aversion to excessively clear environments. This aversion is measured from the ansiogenic component expressed by lower exposure of the animal to the clear compartment.
The method employed followed the procedure described by Crawley and Goodwin (Pharmacol. Biochem. Behav. 1981, 15, 695-699).
The animals were placed on the clear field of a box comprising two compartments, one being illuminate and open (25 x 27 x 27 cm) and the other being dark and close (20 x 27 x 27 cm). Data on the length of stay in each compartment were collected over the three-minute test.
This test aimed at obtaining a comparison profile of response of Compound (A) (3-(2-(-4-(2-methoxyphenyl)piperazin-1-yl)ethyl)quinazolin-4(3H)-one and Compound (B) 3-(2-(4-(2-cyanophenyl)piperazin-1-yl)ethyl)quinazolin-4(3H)-one with known compounds that act by different mechanisms. The comparative compounds were alprazolam (benzodiazepine), paroxetine (ISRS-type antidepressant), venlafaxine (IRSN-type antidepressant) and agomelatine (antidepressant that acts on melatonin and serotonin 5-HT2C receptor). The following doses were employed in this study: Table 1: Tested compounds, concentrations and route of administration.
In this blind study, ten mice (RJ:NMRI, males) were employed per group. Clobazam (12 mg/Kg, i.p. route) was administered under the same study conditions as the reference compound. All compounds were administered 30 minutes before the test.
The test data of the response of substances were analyzed comparing the groups treated with the control vehicle using one-way ANOVA followed by post-hoc analysis of Dunnett's test. The data of the reference substance obtained were analyzed using unpaired Student's t test.

Mice [1] = assay: Sphere hiding test; settings: 1.0 mg/kg i.p.
Description: This test is based on the natural aversive behavior to glass and marble of rodents, where the presence of these objects triggers the action of burying (hiding). In this test, there are potential behavioral changes of medicines that may promote an ansiogenic or anxiolytic profile. This is determined by the increase or decrease of the behavior of hiding glass spheres ("marbles") that are randomly distributed on the surface of a box lined with sawdust. The increase of the number of covered balls is an indicative of anxiety, since it is supposed to represent a foreign agent to the animal, whose presence may pose threat. The administration of anxiolytics medicines decreases the number of spheres buried in non-sedative doses.
The method employed followed the procedure described by Broekkamp et al. (Eur. J. Pharmacol., 1986, 126, 223-229).
Mice were individually placed in transparent plastic cages (33 x 21 x 18 cm), with the floor covered by a 5 cm layer of sawdust and 25 glass spheres grouped in the center of the cage. The cage was covered with a perforated plastic cover. Each test cage, along with the glass spheres, were previously impregnated with "mouse odor", and a group of 10 mice was left inside for 15 minutes.
The number of glass spheres covered with sawdust (2/3 or more of the surface) was counted at the end of the 30 minutes of the test.
Each study group consisted of 12 mice. The test was partially blind (substances tested versus vehicle of the tested substances).
This test aimed at obtaining a comparison profile of response of Compound (A) (3-(2-(-4-(2-methoxyphenyl)piperazin-1-yl) ethyl) quinazolin-4 (3H) -one and Compound (B) (3-(2-(4-(2-cyanophenyl)piperazin-1-yl)ethyl)quinazolin-4(3H)-one) with known compounds that act by different mechanisms. The comparative compounds used were alprazolam (benzodiazepine) and paroxetine (ISRS-type antidepressant). These compounds were tested in the following doses: Table 3: Compounds tested, concentrations employed and route of administration.
Fluoxetine (ISRI antidepressant) was used as the positive control substance in the test, and was administered at 32 mg/kg (i.p.).
Quantitative data for the tested substances (number of glass spheres coated with sawdust) were evaluated by comparison with the treated groups using one-way ANOVA followed by planned comparisons against the appropriate vehicles. Data with fluoxetine were compared to the vehicle control using unpaired Student's t test.

Mice [2] = assay: Non-precipitated withdrawal test; settings: mouse, in vivo, po
Description: This test aims at assessing how the sudden cessation of the administration of a medicine can be associated with the occurrence of withdrawal identifiable symptoms. The types of symptoms examined are feed changes, weight gain, body temperature and the occurrence of one or behavioral symptoms and others, such as tremor, teeth chattering, wet dog body-shaking, diarrhea or piloerection. The triggering of these signs is a first sign that the substance induces dependence after repeated administration.
The method employed followed the procedure described by Goudie and Leathley (Psychopharmacology 1991, 103: 529-537).
Two mice per cage received two administrations per day (approximately 10:00 hours and 16:00 hours) of the test substance continuously during 19 days (day 1 to day 19), with the last administration occurring next to 10:00 hours of the 20th day. Control animals received the same number of administrations of vehicle. […] During the discontinuation phase, all animals received administration of vehicle once a day.
Additionally to the observations made after discontinuing the medicines, the same measures were taken at day 1 and day 10 of treatment, in addition to the 3 last days (days 18 to 20) immediately prior to administration of the dose in the morning to assess the effects of medicines before discontinuation. After discontinuation, the first observation was performed 24 hours after the last administration and, from then on, every 24 hours (days 21 to 28).
For daily measurements, the animals were evaluated with respect to behavioral changes during 5 minutes (two animals simultaneously observed). Then, their body weights and rectal temperatures were measured. Then, they received the proper treatment and were returned to their cages.
The leftover food in their supporters was weighed immediately after all animals return to their cages (only in the mornings), and food consumption in the previous 24 hours was determined.
The body weights, feed consumption and rectal temperatures were also measured 24 hours before the first administration, as reference values. The treated groups were homogenized with regard to body weights on the day preceding the first administration of the tested substances.
Compound (A) (3-(2-(-4-(2-methoxyphenyl)piperazin-1-yl)ethyl)quinazolin-4 (3H)-one) was evaluated in 3 doses (3, 10 and 30 mg/kg) administered orally (p.o.) and compared to the vehicle (control group).
Chlordiazepoxide (64 mg/kg, p.o.) was administered under the same experimental conditions, and was employed as reference substance in the test.
Paroxetine (15 and 30 mg/kg p.o.) was administered under the same experimental conditions and was used as comparative substance.
The test was blinded. Data were analyzed by comparing substances with their control vehicles employing one-way ANOVA with the group as a factor followed by post-hoc Dunnett tests. Data with the reference substance were analyzed using unpaired Student's t test.

Q: What does the source list for `Fc1ccc([C@@H]2CCNC[C@H]2COc2ccc3c(c2)OCO3)cc1` [Paroxetine, paroxetine]?
A: Time spent in the clear compartment compared to vehicle % (mice (RJ:NMRI, males); 4 mg/Kg i.p.): +15%; Time spent in the clear compartment (seconds) (mean ± mean standard error) (mice (RJ:NMRI, males); 4 mg/Kg i.p.): 84.6 ± 7.4 s; Time spent in the clear compartment compared to vehicle % (mice (RJ:NMRI, males); 8 mg/Kg i.p.): -6%; Time spent in the clear compartment (seconds) (mean ± mean standard error) (mice (RJ:NMRI, males); 8 mg/Kg i.p.): 69.3 ± 5.9 s; Time spent in the clear compartment compared to vehicle % (mice (RJ:NMRI, males); 16 mg/Kg i.p.): -13%; Time spent in the clear compartment (seconds) (mean ± mean standard error) (mice (RJ:NMRI, males); 16 mg/Kg i.p.): 63.8 ± 8.2 s; Number of Hidden Spheres Compared to vehicle control % (Mice [1]): -56%; Number of Hidden Spheres (mean ± mean standard error) (Mice [1]; 25 glass spheres, counted at the end of 30 minutes): 8,4 ± 2,3; withdrawal syndrome after an extended administration regimen (Mice [2]): induces mild withdrawal syndrome; amount of food consumed (Mice [2]; 30 mg/kg): significant increase in the amount of food consumed; body weight and food consumption (Mice [2]; 30 mg/kg): significantly induced weight loss and reduction of food consumption
